Reference: article PMC8595612, “Hydrogen peroxide signaling via its transformation to a stereospecific alkyl hydroperoxide that escapes reductive inactivation” (Nature Communications, 2021)

Columns and labels:
Prx4 = biological target: T1, Prx4 (Homo sapiens, UniProt Q13162); assay: redox blotting, estimated rate constant at […] °C; assay type: biochemical
T1 construct: gene PRDX4; His-tagged wild type human Prx4
T1 sequence (Q13162 38-271): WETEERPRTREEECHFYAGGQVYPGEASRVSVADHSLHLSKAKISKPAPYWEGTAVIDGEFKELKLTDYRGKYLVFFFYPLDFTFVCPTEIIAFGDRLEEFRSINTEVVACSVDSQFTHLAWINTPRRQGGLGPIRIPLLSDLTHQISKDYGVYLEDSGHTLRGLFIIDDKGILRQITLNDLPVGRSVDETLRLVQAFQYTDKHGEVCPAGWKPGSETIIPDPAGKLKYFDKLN

GPx4 = biological target: T2, GPx4 (Rattus norvegicus, UniProt P36970); assay: coupled NADPH oxidation assay, apparent second-order rate constant; assay type: biochemical
T2 construct: GPx4 isolated from rat testis mitochondria
T2 sequence (P36970 28-197): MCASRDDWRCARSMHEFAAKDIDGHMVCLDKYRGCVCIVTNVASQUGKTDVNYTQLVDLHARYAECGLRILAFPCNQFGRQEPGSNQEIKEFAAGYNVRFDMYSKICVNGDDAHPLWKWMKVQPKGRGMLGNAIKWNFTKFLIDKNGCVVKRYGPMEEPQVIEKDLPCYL

PKG1α = biological target: T3, PKG1α (Homo sapiens, UniProt Q13976); assay: oxidative dimerization of purified PKG1α, non-reducing SDS-PAGE; assay type: biochemical
T3 construct: gene PRKG1; purified recombinant PKG1α, His-tag cleaved
T3 sequence (Q13976 2-671): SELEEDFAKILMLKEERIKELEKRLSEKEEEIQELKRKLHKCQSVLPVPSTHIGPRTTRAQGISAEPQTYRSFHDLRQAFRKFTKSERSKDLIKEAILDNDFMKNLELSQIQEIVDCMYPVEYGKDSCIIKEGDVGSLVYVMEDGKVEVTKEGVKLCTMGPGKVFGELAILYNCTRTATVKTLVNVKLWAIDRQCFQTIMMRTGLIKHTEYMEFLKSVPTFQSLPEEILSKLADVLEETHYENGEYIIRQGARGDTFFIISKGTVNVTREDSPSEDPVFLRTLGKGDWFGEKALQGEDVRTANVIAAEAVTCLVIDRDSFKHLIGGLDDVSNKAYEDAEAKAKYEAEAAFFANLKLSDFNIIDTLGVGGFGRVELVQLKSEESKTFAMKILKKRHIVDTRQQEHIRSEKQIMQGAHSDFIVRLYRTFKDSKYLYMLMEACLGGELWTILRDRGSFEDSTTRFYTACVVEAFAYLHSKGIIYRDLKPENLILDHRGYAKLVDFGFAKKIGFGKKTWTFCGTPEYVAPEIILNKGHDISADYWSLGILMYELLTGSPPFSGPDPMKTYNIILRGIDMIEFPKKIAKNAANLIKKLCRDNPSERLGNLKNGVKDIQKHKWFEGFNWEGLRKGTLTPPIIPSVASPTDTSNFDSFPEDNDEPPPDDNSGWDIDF

[1] = biological target: the molecule itself; assay: non-reducing SDS-PAGE (disulfide-linked dimer, redox blotting); purified pre-reduced Prx (20 uM) incubated with cis-WOOH, trans-WOOH (1-20 uM) or H2O2 (2.5-20 uM) for 10 s at 5 °C in 50 mM sodium phosphate pH 7.4 with 100 uM DTPA; NEM 50 mM; non-reducing 4-12% SDS-PAGE, silver stain; monomer and dimer bands
[2] = biological target: the molecule itself; assay: non-reducing SDS-PAGE (disulfide-linked dimer); purified PKG1α (3.3 uM) with 200 uM cis-WOOH or H2O2, 5 min, 25 °C, 25 mM phosphate pH 7.0, 200 uM TCEP; stopped with 125 mM maleimide; non-reducing 4-12% SDS-PAGE, silver stain

## O=C(O)[C@@H]1C[C@]2(OO)c3ccccc3N[C@@H]2N1 [trans-WOOH]
Prx4
  redox blotting, estimated rate constant at 5 °C: ~ 10^3 M^−1 s^−1
GPx4
  coupled NADPH oxidation assay, apparent second-order rate constant: 1.6e+06 M⁻¹ s⁻¹

## O=C(O)[C@@H]1C[C@@]2(OO)c3ccccc3N[C@H]2N1 [cis-WOOH]
PKG1α
  oxidative dimerization of purified PKG1α, non-reducing SDS-PAGE: cis-WOOH caused greater PKG1α dimerization than the same concentrations of H2O2
Prx4
  redox blotting, estimated rate constant at 5 °C: ~ 10^3 M^−1 s^−1
GPx4
  coupled NADPH oxidation assay, apparent second-order rate constant: 1e+06 M⁻¹ s⁻¹

B1: His-tagged wild type human Prx2 (peroxiredoxin 2) (enzyme, UniProt P32119 1-198, looked up)
chain: MASGNARIGKPAPDFKATAVVDGAFKEVKLSDYKGKYVVLFFYPLDFTFVCPTEIIAFSNRAEDFRKLGCEVLGVSVDSQFTHLAWINTPRKEGGLGPLNIPLLADVTRRLSEDYGVLKTDEGIAYRGLFIIDGKGVLRQITVNDLPVGRSVDEALRLVQAFQYTDEHGEVCPAGWKPGSDTIKPNVDDSKEYFSKHN
notes: human peroxiredoxin 2 (Prx2), wild type; also called His-tagged Prx2; pre-reduced His-tagged Prx2; source: E. coli BL21 (DE3), pET-28a, purified (Ni-NTA)
[1]
  binding result: binds

B2: untagged human Prx2 (His-tag cleaved with Factor Xa) (enzyme, UniProt P32119 1-198, looked up)
chain: MASGNARIGKPAPDFKATAVVDGAFKEVKLSDYKGKYVVLFFYPLDFTFVCPTEIIAFSNRAEDFRKLGCEVLGVSVDSQFTHLAWINTPRKEGGLGPLNIPLLADVTRRLSEDYGVLKTDEGIAYRGLFIIDGKGVLRQITVNDLPVGRSVDEALRLVQAFQYTDEHGEVCPAGWKPGSDTIKPNVDDSKEYFSKHN
notes: human peroxiredoxin 2 (Prx2), wild type; also called untagged Prx2; source: E. coli BL21 (DE3), pET-28a, purified (Ni-NTA), tag cleaved with Factor Xa
[1]
  binding result: binds

B3: purified recombinant human protein kinase G 1α (PKG1α) (enzyme, UniProt Q13976 1-671, looked up)
chain: MSELEEDFAKILMLKEERIKELEKRLSEKEEEIQELKRKLHKCQSVLPVPSTHIGPRTTRAQGISAEPQTYRSFHDLRQAFRKFTKSERSKDLIKEAILDNDFMKNLELSQIQEIVDCMYPVEYGKDSCIIKEGDVGSLVYVMEDGKVEVTKEGVKLCTMGPGKVFGELAILYNCTRTATVKTLVNVKLWAIDRQCFQTIMMRTGLIKHTEYMEFLKSVPTFQSLPEEILSKLADVLEETHYENGEYIIRQGARGDTFFIISKGTVNVTREDSPSEDPVFLRTLGKGDWFGEKALQGEDVRTANVIAAEAVTCLVIDRDSFKHLIGGLDDVSNKAYEDAEAKAKYEAEAAFFANLKLSDFNIIDTLGVGGFGRVELVQLKSEESKTFAMKILKKRHIVDTRQQEHIRSEKQIMQGAHSDFIVRLYRTFKDSKYLYMLMEACLGGELWTILRDRGSFEDSTTRFYTACVVEAFAYLHSKGIIYRDLKPENLILDHRGYAKLVDFGFAKKIGFGKKTWTFCGTPEYVAPEIILNKGHDISADYWSLGILMYELLTGSPPFSGPDPMKTYNIILRGIDMIEFPKKIAKNAANLIKKLCRDNPSERLGNLKNGVKDIQKHKWFEGFNWEGLRKGTLTPPIIPSVASPTDTSNFDSFPEDNDEPPPDDNSGWDIDF
notes: human cGMP-dependent protein kinase 1, isoform alpha (PKG1α); also called PK1α; source: FreeStyle 293-F cells, transfected, purified (Ni-NTA, HiTrap Q), His-tag cleaved with TEV protease
[2]
  binding result: binds
